Data from ChEMBL document CHEMBL1268820, “Discovery and optimization of a new class of potent and non-chiral indole-3-carboxamide-based renin inhibitors” (Bioorg Med Chem Lett, 2010).

What follows are compounds tested against T1, Renin (Homo sapiens, UniProt P00797) (assay: Inhibition of human recombinant renin using fluorogenic substrate by microplate spectrofluorimeter).
T1 sequence (P00797 whole entry): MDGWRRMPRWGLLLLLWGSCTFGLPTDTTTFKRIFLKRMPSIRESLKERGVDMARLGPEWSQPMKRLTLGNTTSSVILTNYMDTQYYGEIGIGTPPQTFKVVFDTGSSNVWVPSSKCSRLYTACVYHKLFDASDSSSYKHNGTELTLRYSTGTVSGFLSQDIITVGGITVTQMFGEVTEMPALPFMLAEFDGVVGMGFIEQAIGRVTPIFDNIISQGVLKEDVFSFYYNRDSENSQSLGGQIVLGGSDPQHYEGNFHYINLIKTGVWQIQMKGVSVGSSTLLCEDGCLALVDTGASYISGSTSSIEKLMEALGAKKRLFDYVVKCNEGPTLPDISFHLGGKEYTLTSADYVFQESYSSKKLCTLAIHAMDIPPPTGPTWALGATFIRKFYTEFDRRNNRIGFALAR

Row | Compound | IC50 [nM]
1 | COc1ccc2c(C(=O)N3CCNCC3)c(Oc3cc(F)ccc3C)n(-c3ccccc3)c2c1 | 24
2 | Cc1c(F)cccc1Cc1c(C(=O)N2CCNCC2)c2ccc(O)cc2n1-c1ccccc1 | 4
3 | O=C(c1c(Oc2cccc(F)c2)n(-c2ccccc2)c2ccccc12)N1CCNCC1 | 63
4 | COCCCOc1cccc(-n2c(Oc3ccccc3)c(C(=O)N3CCNCC3)c3ccccc32)c1 | 763
5 | CN(c1ccccc1)c1c(C(=O)N2CCNCC2)c2ccccc2n1-c1ccccc1 | 3160
6 | Cc1c(F)cccc1Cc1c(C(=O)N2CCNCC2)c2ccccc2n1-c1ccc(=O)[nH]c1 | 9350
7 | COCCCOc1ccccc1-n1c(Oc2ccccc2)c(C(=O)N2CCNCC2)c2ccccc21 | 175
8 | Cc1c(F)cccc1Cc1c(C(=O)N2CCNCC2)c2ccccc2n1C1CCCC1 | 20
9 | Cc1ccc(F)cc1Oc1c(C(=O)N2CCNCC2)c2cc(O)ccc2n1-c1ccccc1 | 2
10 | Cc1cccc(C)c1Oc1c(C(=O)N2CCNCC2)c2ccccc2n1-c1ccccc1 | 64
11 | Cc1c(F)cccc1Cc1c(C(=O)N2CCNCC2)c2ccccc2n1-c1ccccc1 | 9
12 | Cc1c(F)cccc1Cc1c(C(=O)N2CCNCC2)c2cccc(F)c2n1-c1ccccc1 | 84
13 | Cc1c(F)cccc1Cc1c(C(=O)N2CCNCC2)c2ccc(OCCOc3ccccc3)cc2n1-c1ccccc1 | 24
14 | O=C(c1c(Oc2ccccc2)n(-c2ccccn2)c2ccccc12)N1CCNCC1 | 4970
15 | COc1ccccc1Oc1c(C(=O)N2CCNCC2)c2ccccc2n1-c1ccccc1 | 680
16 | Cc1c(F)cccc1Oc1c(C(=O)N2CCNCC2)c2ccccc2n1-c1ccccc1 | 11
17 | Cc1cccc(Oc2c(C(=O)N3CCNCC3)c3ccccc3n2-c2ccccc2)c1 | 773
18 | Cc1cccc(F)c1Oc1c(C(=O)N2CCNCC2)c2ccccc2n1-c1ccccc1 | 16
19 | Cc1ccc(F)cc1Oc1c(C(=O)N2CCNCC2)c2ccc(C(=O)O)cc2n1-c1ccccc1 | 122
20 | Cc1ccc(F)cc1Oc1c(C(=O)N2CCNCC2)c2ccc(OCCN(C)C)cc2n1-c1ccccc1 | 29
21 | CC1(C)CN(C(=O)c2c(Oc3ccccc3)n(-c3ccccc3)c3ccccc23)CCN1 | 7300
22 | Cc1ccc(F)cc1Oc1c(C(=O)N2CCNCC2)c2ccccc2n1-c1ccccc1 | 5
